Data as given in PubChem BioAssay (NCI).
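Cells were grown in 96-well plates and exposed to each compound for 48 hours at five concentrations; endpoints were interpolated linearly between bracketing concentrations, or set to the highest concentration if not reached. Definition used: TGI = concentration required for complete inhibition of growth.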

How the values were obtained:
Assay in all cases: NCI tumour cell line growth inhibition, 48 h
DLD-1 colon = tested on: DLD-1 colon
DMS 114 small cell lung = tested on: DMS 114 small cell lung
HOP-18 NSCLC = tested on: HOP-18 NSCLC
KM20L2 colon = tested on: KM20L2 colon
P388 leukemia = tested on: P388 leukemia
P388/ADR leukemia = tested on: P388/ADR leukemia
SN12K1 renal = tested on: SN12K1 renal
SNB-78 CNS = tested on: SNB-78 CNS
XF 498 CNS = tested on: XF 498 CNS
LXFL 529 NSCLC = tested on: LXFL 529 NSCLC
RXF-631 renal = tested on: RXF-631 renal

CN(C)N=Nc1ccc([N+](=O)[O-])cc1C(N)=O
TGI (DLD-1 colon): > 100 µM
TGI (DMS 114 small cell lung): > 100 µM
TGI (HOP-18 NSCLC): > 100 µM
TGI (KM20L2 colon): > 100 µM
TGI (P388 leukemia): > 100 µM
TGI (P388/ADR leukemia): > 100 µM
TGI (SN12K1 renal): > 100 µM
TGI (SNB-78 CNS): > 100 µM
TGI (XF 498 CNS): > 100 µM

CO/C(=N\N=C\c1ccc(Cl)cc1)c1ccncc1
TGI (DLD-1 colon): > 100 µM
TGI (DMS 114 small cell lung): > 100 µM
TGI (KM20L2 colon): > 100 µM
TGI (LXFL 529 NSCLC): > 100 µM
TGI (SNB-78 CNS): > 100 µM
TGI (XF 498 CNS): > 100 µM

Cc1cn(C2CC(O)C(CO)C2C)c(=O)[nH]c1=O (stereo not given)
TGI (DLD-1 colon): > 100 µM
TGI (DMS 114 small cell lung): > 100 µM
TGI (HOP-18 NSCLC): > 100 µM
TGI (KM20L2 colon): > 100 µM
TGI (LXFL 529 NSCLC): > 100 µM
TGI (RXF-631 renal): > 100 µM
TGI (SNB-78 CNS): > 100 µM
TGI (XF 498 CNS): > 100 µM

C=Nc1ccc([N+](=O)[O-])cc1
TGI (DLD-1 colon): > 100 µM
TGI (DMS 114 small cell lung): > 100 µM
TGI (HOP-18 NSCLC): > 92.9 µM
TGI (KM20L2 colon): > 100 µM
TGI (LXFL 529 NSCLC): > 100 µM
TGI (SNB-78 CNS): > 100 µM
TGI (XF 498 CNS): > 100 µM
